Assay results from PMC10241523 (The Journal of Venomous Animals and Toxins Including …, 2023).
Like-named read-outs stand apart in the source and are kept apart here. Where a SMILES comes first, the peptide text is derived from it. Bridges are numbered along the chain shown (N, C = ends).

Legend:
Kunming mice = settings: mouse, in vivo
calcium currents = settings: cited from earlier work
[1] = tested on: voltage-gated calcium channels; settings: cited from earlier work
human NaV1.7 (hNaV1.7) = format: cell-based; settings: 10 μM
human CaV1.2 (hCaV1.2) [2] = molecular target: T1, human CaV1.2 (hCaV1.2) (Homo sapiens, UniProt Q13936); settings: pH 7.4
ND7/23 cells = settings: 48 h
[3] = tested on: sodium channel currents in rat DRG neurons; format: cell-based; settings: 10 μM; n = 3
[4] = tested on: calcium channel currents in rat DRG neurons; format: cell-based; settings: 10 μM
human CaV1.2 (hCaV1.2) [5] = molecular target: T1, human CaV1.2 (hCaV1.2); assay: cell-based; settings: HEK293, read-out: inhibition of hCaV1.2 currents
human NaV1.3 (hNaV1.3) = format: cell-based; settings: 10 μM
hNaV1.8 = format: cell-based, human
human CaV2.2 (hCaV2.2) = format: cell-based; settings: 10 μM
[6] = tested on: potassium channel currents in rat DRG neurons; format: cell-based; settings: 10 μM

T1 sequence (Q13936 whole entry, looked up): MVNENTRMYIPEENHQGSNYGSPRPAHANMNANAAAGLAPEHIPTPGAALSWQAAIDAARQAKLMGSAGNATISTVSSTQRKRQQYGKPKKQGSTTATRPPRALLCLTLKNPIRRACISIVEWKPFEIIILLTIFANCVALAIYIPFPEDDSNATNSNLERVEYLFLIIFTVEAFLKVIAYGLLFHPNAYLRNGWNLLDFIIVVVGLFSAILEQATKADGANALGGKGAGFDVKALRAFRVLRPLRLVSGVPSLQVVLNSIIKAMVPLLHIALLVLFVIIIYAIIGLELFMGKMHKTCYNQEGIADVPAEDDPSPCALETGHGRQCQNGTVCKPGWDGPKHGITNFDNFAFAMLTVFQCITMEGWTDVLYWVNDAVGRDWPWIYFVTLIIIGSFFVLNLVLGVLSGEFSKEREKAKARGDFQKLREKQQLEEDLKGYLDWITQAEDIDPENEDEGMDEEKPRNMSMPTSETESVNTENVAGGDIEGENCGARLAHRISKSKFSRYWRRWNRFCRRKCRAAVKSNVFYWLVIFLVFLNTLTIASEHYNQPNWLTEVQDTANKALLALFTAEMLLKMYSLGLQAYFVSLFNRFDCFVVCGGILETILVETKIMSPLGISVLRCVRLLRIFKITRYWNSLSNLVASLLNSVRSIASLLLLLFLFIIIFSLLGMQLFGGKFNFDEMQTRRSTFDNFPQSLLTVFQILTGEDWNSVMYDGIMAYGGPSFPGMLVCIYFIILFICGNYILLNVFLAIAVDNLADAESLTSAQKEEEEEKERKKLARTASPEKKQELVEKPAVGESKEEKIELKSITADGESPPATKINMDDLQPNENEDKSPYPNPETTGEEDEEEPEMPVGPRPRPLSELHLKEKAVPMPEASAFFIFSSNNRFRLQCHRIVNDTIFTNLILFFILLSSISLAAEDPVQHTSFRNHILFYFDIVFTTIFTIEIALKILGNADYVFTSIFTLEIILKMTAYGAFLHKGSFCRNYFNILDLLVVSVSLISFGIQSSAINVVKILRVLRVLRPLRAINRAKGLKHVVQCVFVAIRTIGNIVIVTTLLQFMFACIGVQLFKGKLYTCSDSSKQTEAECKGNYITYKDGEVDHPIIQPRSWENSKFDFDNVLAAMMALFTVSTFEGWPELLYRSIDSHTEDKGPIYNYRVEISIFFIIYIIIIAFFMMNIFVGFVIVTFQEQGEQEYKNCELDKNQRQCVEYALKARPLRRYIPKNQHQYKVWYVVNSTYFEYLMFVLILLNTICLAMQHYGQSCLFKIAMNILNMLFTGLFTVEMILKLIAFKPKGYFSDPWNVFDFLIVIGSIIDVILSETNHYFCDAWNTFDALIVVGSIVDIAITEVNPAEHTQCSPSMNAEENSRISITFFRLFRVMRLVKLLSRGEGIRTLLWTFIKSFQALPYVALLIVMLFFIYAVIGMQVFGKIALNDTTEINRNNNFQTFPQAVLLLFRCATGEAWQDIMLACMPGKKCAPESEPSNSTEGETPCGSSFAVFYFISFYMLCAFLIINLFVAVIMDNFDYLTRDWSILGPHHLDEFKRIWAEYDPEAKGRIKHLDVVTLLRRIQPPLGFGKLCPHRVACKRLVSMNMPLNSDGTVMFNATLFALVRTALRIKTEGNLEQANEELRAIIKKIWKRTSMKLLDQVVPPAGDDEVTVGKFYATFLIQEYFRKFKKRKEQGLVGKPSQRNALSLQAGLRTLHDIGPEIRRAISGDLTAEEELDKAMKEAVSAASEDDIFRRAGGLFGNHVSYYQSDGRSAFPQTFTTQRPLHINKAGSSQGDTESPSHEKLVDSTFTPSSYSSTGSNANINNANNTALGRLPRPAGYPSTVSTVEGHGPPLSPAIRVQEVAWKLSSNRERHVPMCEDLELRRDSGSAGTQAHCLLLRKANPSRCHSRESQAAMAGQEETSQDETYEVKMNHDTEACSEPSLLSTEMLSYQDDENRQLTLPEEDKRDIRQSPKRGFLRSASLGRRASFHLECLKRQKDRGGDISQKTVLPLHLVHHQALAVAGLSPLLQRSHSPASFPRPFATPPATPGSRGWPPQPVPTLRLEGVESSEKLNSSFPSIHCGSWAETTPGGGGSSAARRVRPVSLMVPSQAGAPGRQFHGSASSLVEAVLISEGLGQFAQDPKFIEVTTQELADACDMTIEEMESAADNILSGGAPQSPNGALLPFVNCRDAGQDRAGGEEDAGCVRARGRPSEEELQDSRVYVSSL

Ziconotide
analgesic effect compared with Tx6.7 (Kunming mice): better analgesic effect than Tx6.7
inhibition of calcium currents (ω family conotoxins) (calcium currents): inhibiting calcium currents
block of voltage-gated calcium channels (ω family) [1]: blockers of voltage-gated calcium channels

CC[C@H](C)[C@H](NC(=O)[C@@H]1CSSC[C@@H]2NC(=O)[C@H](Cc3ccc(O)cc3)NC(=O)[C@H]([C@@H](C)CC)NC(=O)[C@H](C(C)C)NC(=O)CNC(=O)[C@H](CC(C)C)NC(=O)[C@H](CC(C)C)NC(=O)[C@H](CO)NC(=O)[C@H](C)NC(=O)[C@@H]3CCCN3C(=O)[C@@H]3CSSC[C@H](NC(=O)[C@H]([C@@H](C)CC)NC(=O)[C@H](CC(C)C)NC(=O)CNC(=O)[C@H](CCC(=O)O)NC(=O)[C@H](CSSC[C@H](NC(=O)[C@@H](N)CC(=O)O)C(=O)N[C@@H](Cc4c[nH]cn4)C(=O)N[C@@H](CCC(=O)O)C(=O)N[C@@H](CCCNC(=N)N)C(=O)N[C@@H](Cc4c[nH]c5ccccc45)C(=O)N[C@@H](CC(=O)O)C(=O)N[C@@H](Cc4c[nH]c5ccccc45)C(=O)N3)NC2=O)C(=O)N[C@@H](Cc2ccccc2)C(=O)N[C@@H]([C@@H](C)CC)C(=O)N[C@@H](C)C(=O)N[C@@H](Cc2ccccc2)C(=O)N1)C(=O)O [Tx6.7] (H-DCHERWDWCPASLLGVIYCCEGLICFIAFCI-OH; disulfide 2-20, 9-25, 19-30)
effects on hNaV1.7 currents (human NaV1.7 (hNaV1.7)): no obvious effects
IC50 (human CaV1.2 (hCaV1.2) [2]): 9.63 ± 1.12 µM
cytotoxicity against ND7/23 cells (ND7/23 cells): no significant cytotoxicity
Cell viability (ND7/23 cells; 0.01 μM): 101.95%
Cell viability (ND7/23 cells; 0.1 μM): 105.01%
Cell viability (ND7/23 cells; 1 μM): 99.18%
Cell viability (ND7/23 cells; 10 μM): 98.60%
Cell viability (ND7/23 cells; 100 μM): 94.80%
Cell viability at all detected concentrations (ND7/23 cells; 100 μM): more than 94%
inhibitory effects on the sodium currents in rat DRG neurons [3]: no inhibitory effects
shift in the current-voltage relationship, sodium currents [3]: did not induce a shift in the current-voltage relationship
inhibition of peak calcium currents [4]: 59.29 ± 2.34%
shift in the current-voltage relationship, calcium currents ([4]; n = 3): did not induce a shift in the current-voltage relationship of calcium currents
inhibition at 10 µM (human CaV1.2 (hCaV1.2) [5]): 56.6 ± 3.2%
pain threshold (Kunming mice): increased
pain threshold increment percentage (maximum) (Kunming mice): 98.91%
time of maximum analgesic effect (Kunming mice): 2 h
effects on hNaV1.3 currents (human NaV1.3 (hNaV1.3)): no obvious effects
inhibition of hNaV1.8 currents (hNaV1.8): 7.30 ± 3.38%
inhibition of hCaV2.2 currents (human CaV2.2 (hCaV2.2)): 24.67 ± 0.91%
inhibition of peak potassium currents [6]: 22.33 ± 7.81%
